Assay type in all cases: functional
Assay [1] is described as follows: Antiplatelet activity in Sprague-Dawley rat platelet-rich plasma assessed as minimum drug level causing inhibition of arachidonic acid-induced platelet aggregation administered 2 mins before arachidonic acid challenge by modified smear method.
Assay [2] is described as follows: Antiplatelet activity in Sprague-Dawley rat platelet-rich plasma assessed as minimum drug level causing inhibition of ADP-induced platelet aggregation administered 2 mins before ADP challenge by modified smear method.
Assay [3] is described as follows: Antiplatelet activity in Sprague-Dawley rat platelet-rich plasma assessed as minimum drug level causing inhibition of collagen-induced platelet aggregation administered 2 mins before collagen challenge by modified smear method.

Our source for the Activity values is ChEMBL document CHEMBL1151649, “Modified smear method for screening potential inhibitors of platelet aggregation from plant sources” (1985).

Take `CC(=O)Oc1ccccc1C(=O)O` [ASPIRIN]: the Activity turned out to be 50 µg/mL in assay [1], 1000 µg/mL in assay [2] and 250 µg/mL in assay [3].

On to `COc1ccc(Cc2nccc3cc(OC)c(OC)cc23)cc1OC` [PAPAVERINE], for which the Activity was found to be 10 µg/mL in assay [1], 100 µg/mL in assay [2] and 25 µg/mL in assay [3].
